Common to all, as to format: cell-based
Experiment [1] has as its system bovine aortic endothelial cells. Kind of experiment: cGMP production stimulated by the Alzheimer protein β/A4 in endothelial cell cultures (BAECs), radioimmunoassay. From the text: (§1) Action of the compounds of the formula (I) on cGMP production stimulated by the Alzheimer protein β/A4 in endothelial cell cultures
(§2) Bovine aortic endothelial cell cultures (BAECs=bovine aortic endothelial cells), […] coronary rat endothelial cell cultures (RMCECs=rat microvascular coronary endothelial cells) and human umbilical vein endothelial cell cultures (HUVECs=human umbilical vein endothelial cells)
(§3) Determination of the effect of bradykinin antagonists of the formula (I) on the production of cGMP stimulated by administration of 0.1 and 1 μmol/l of the Alzheimer protein β/A4 in endothelial cell cultures of various species and organs.
(§4) In endothelial cells, bradykinin leads to an increase in the production of cGMP, which is determined by means of a radioimmunoassay. Increase in the formation of cGMP by bradykinin is an indicator of a release of NO (nitrogen monoxide) from endothelial cells.
(§5) Stimulation of cGMP production by βA(1-40) and inhibitory effect of the bradykinin antagonist HOE 140 (10^-7 mol/l) in 3 different types of endothelial cells: […]

The subject of experiment [2] is human umbilical vein endothelial cells. In words: cGMP production stimulated by the Alzheimer protein β/A4 in endothelial cell cultures (HUVECs), radioimmunoassay.
From the text: as §1, §2, §3, §4, §5

For experiment [3], the system named is rat microvascular coronary endothelial cells. In words: cGMP production stimulated by the Alzheimer protein β/A4 in endothelial cell cultures (RMCECs), radioimmunoassay.
From the text: as §1, §2, §3, §4, §5

Setting [4] is: simultaneous incubation with HOE 140 0.1 μmol/l.
[5] abbreviates: stimulated with BK 10^-8 mol/l + HOE 140 (10^-7 mol/l).
[6] abbreviates: stimulated with βA (1-40) 10^-6 mol/l + HOE 140 (10^-7 mol/l).
The mark [7] stands for this setting: stimulated with βA (1-40) 10^-7 mol/l + HOE 140 (10^-7 mol/l).

Where no end group is shown, it is not given here.

Consider `N=C(N)NCCC[C@@H](N)C(=O)N[C@@H](CCCNC(=N)N)C(=O)N1CCC[C@H]1C(=O)N1C[C@H](O)C[C@H]1C(=O)NCC(=O)N[C@@H](Cc1cccs1)C(=O)N[C@@H](CO)C(=O)N1Cc2ccccc2C[C@@H]1C(=O)N1[C@H](C(=O)N[C@@H](CCCNC(=N)N)C(=O)O)C[C@@H]2CCCC[C@@H]21` [HOE 140, H-D-Arg-Arg-Pro-Hyp-Gly-Thi-Ser-D-Tic-Oic-Arg-OH], for which the “effect on the stimulation of the production of cGMP induced by the β/A4 protein” value in experiment [1] (setting [4]), in experiment [2] (setting [4]) and in experiment [3] (setting [4]) was “prevents the stimulation of the production of cGMP” in each case. Also, the cGMP production in experiment [1] (setting [5]) was 2.2 ± 0.2 pmol/mg of protein; in experiment [1] (setting [6]), 2.2 ± 0.2 pmol/mg of protein; in experiment [1] (setting [7]), 2.2 ± 0.28 pmol/mg of protein; in experiment [2] (setting [5]), 3.45 ± 0.45 pmol/mg of protein; in experiment [2] (setting [6]), 5.3 pmol/mg of protein; in experiment [2] (setting [7]), 4.0 pmol/mg of protein. The cGMP production in experiment [3] (setting [5]) is 0.22 ± 0.02 pmol/mg of protein; in experiment [3] (setting [6]) it was 0.32 ± 0.05 pmol/mg of protein; in experiment [3] (setting [7]), 0.34 ± 0.02 pmol/mg of protein.
As for RPPGFSPFR [BK, bradykinin], the cGMP production in experiment [1] (BK 10^-8 mol/l alone) is given as 8.8 ± 0.34 pmol/mg of protein; in experiment [2] (BK 10^-8 mol/l alone) it was 11.46 ± 2 pmol/mg of protein; in experiment [3] (BK 10^-8 mol/l alone), 1.13 ± 0.2 pmol/mg of protein.
Take “βA (1-40): Alzheimer protein amyloid (β/A4), used to stimulate cGMP production [reference compound]”: the cGMP production was 4.6 ± 0.13 pmol/mg of protein in experiment [1] (βA (1-40) 10^-6 mol/l alone); 5.9 ± 0.23 pmol/mg of protein in experiment [1] (βA (1-40) 10^-7 mol/l alone); 15.3 ± 1.9 pmol/mg of protein in experiment [2] (βA (1-40) 10^-6 mol/l alone); 14.07 ± 1.6 pmol/mg of protein in experiment [2] (βA (1-40) 10^-7 mol/l alone); 0.74 ± 0.09 pmol/mg of protein in experiment [3] (βA (1-40) 10^-6 mol/l alone); 0.59 ± 0.07 pmol/mg of protein in experiment [3] (βA (1-40) 10^-7 mol/l alone).

Source of the values: patent US6245736A, “Use of peptidic bradykinin antagonists for the treatment and prevention of Alzheimer's disease” (Aventis Pharma Deutschland GmbH, priority 1996, dated 2001).
